The subject of series [1] is Oryctolagus cuniculus. As to the kind of experiment: Anesthetic activity in rabbit assessed as onset time. Format: functional.
Series [2] has as its system Oryctolagus cuniculus. Kind of series: Anesthetic activity in rabbit assessed as time duration of loss of righting reflex. The series is classed as functional.
The subject of series [3] is Rattus norvegicus. As to the kind of experiment: Anesthetic activity in rat assessed as onset time. Format: functional.
Series [4] concerns Rattus norvegicus. Kind of series: Anesthetic activity in rat assessed as time to behavioral recovery. The series is classed as functional.
Series [5] in a line: n-Octanol/water partition coefficient, logP of the compound. The series is classed as physicochemical. Particulars: n-octanol/water; read-out: logP.
Series [6] deals with Rattus norvegicus. As to the kind of experiment: Anesthetic activity in rat assessed as time to walk. Format: functional.
The subject of series [7] is Mus musculus. Kind of series: Anesthetic activity in mouse assessed as time to behavioral recovery. Format: functional.
The test system of series [8] is Mus musculus. Kind of series: Anesthetic activity in mouse assessed as concentration required to induce hypnotic effect. Format: functional.
The test system of series [9] is Oryctolagus cuniculus. As to the kind of experiment: Anesthetic activity in rabbit assessed as concentration required to induce hypnotic effect. Format: functional.
Series [10] deals with Oryctolagus cuniculus. Kind of series: Anesthetic activity in rabbit assessed as time to walk. Format: functional.
Series [11] relates to Mus musculus. Kind of series: Anesthetic activity in mouse assessed as time to walk. Format: functional.
Series [12] concerns Mus musculus. Kind of series: Anesthetic activity in mouse assessed as time duration of loss of righting reflex. The series is classed as functional.
The test system of series [13] is Mus musculus. As to the kind of experiment: Anesthetic activity in mouse assessed as onset time. Format: functional.
Series [14] can be described thus: Toxicity in rabbit assessed as lethal dose. Details: species or system Oryctolagus cuniculus. Particulars: in vivo.
Series [15] can be described thus: Therapeutic index, ratio of LD50 for toxicity in rabbit to HD50 for anesthetic activity in rabbit assessed as concentration required to induce hypnotic effect. To be noted: read-out: TI.
Series [16] in a line: Therapeutic index, ratio of LD50 for toxicity in mouse to HD50 for anesthetic activity in mouse assessed as concentration required to induce hypnotic effect. To be noted: read-out: TI.
In series [17] the test system is Rattus norvegicus. Kind of series: Anesthetic activity in rat assessed as concentration required to induce hypnotic effect. The series is classed as functional.
Series [18] concerns the target GABA-A receptor; anion channel (Homo sapiens) (UniProt P14867+P47870+P18507+P28472+P48169+Q99928+Q9UN88+P34903+O00591+O14764+Q8N1C3+P18505+P78334+P47869+P31644+Q16445). Kind of series: Inhibition of GABAA receptor (unknown origin) at 50 uM by radioligand receptor binding assay relative to control. Format: protein-complex assay.
Series [19] is described as follows: Toxicity in mouse assessed as lethal dose. To be noted: in vivo.
Series [20] deals with Rattus norvegicus. Kind of series: Anesthetic activity in rat assessed as time duration of loss of righting reflex. Format: functional.
The nature of series [21]: Therapeutic index, ratio of LD50 for toxicity in rat to HD50 for anesthetic activity in rat assessed as concentration required to induce hypnotic effect. Particulars: read-out: TI.
Series [22] can be described thus: Toxicity in rat assessed as lethal dose. To be noted: in vivo.

Structures are written as SMILES.

The term logP denotes the decadic logarithm of the partition coefficient of the neutral form, usually between octanol and water. Broadly, the ED50 is the dose at which the effect has come halfway, by size or by number of responders. For the molecule `CCCOC(=O)Cc1ccc(OCC(=O)N(CC)CC)c(OCC)c1` [AZD-3043], the Time is listed as 19.8 s with Oryctolagus cuniculus [1]; 221.6 s in the series with Oryctolagus cuniculus [2]; 12.4 s in the series on Rattus norvegicus [3]; 56.9 s in the series on Rattus norvegicus [4]; 38.4 s in the series with Rattus norvegicus [6]; 89.6 s in the series on Mus musculus [7]. In addition, the Time turned out to be 89.6 s in the series on Oryctolagus cuniculus [10], 22.9 s in the series with Mus musculus [11], 63.8 s in the series on Mus musculus [12] and 5.6 s in the series on Mus musculus [13]. In series [5], the logP was 2.8. The 50% effective dose (ED50) with Mus musculus [8] was 17.6 mg/kg; in the series with Oryctolagus cuniculus [9] it was 4.6 mg/kg.
Broadly, the LD50 is the dose expected to kill half of the subjects tested. In the case of `CC(C)c1cccc(C(C)C)c1O` [PROPOFOL], the Time is 21.7 s in the series with Oryctolagus cuniculus [1]; 326.6 s in the series with Oryctolagus cuniculus [2]; 10.1 s in the series on Rattus norvegicus [3]; 335.8 s with Rattus norvegicus [4]; 286.5 s with Rattus norvegicus [6]; 242.7 s in the series on Mus musculus [7]. Also, the Time in the series on Oryctolagus cuniculus [10] was 425.3 s; in the series on Mus musculus [11] it was 46.5 s; in the series on Mus musculus [12] it was 240.9 s; in the series with Mus musculus [13], 8.1 s. Also, the log partition coefficient (logP) in series [5] came to 4.2. The figures for the 50% effective dose (ED50) in the series on Mus musculus [8] and with Oryctolagus cuniculus [9] were 11.9 mg/kg and 3.7 mg/kg, respectively. Further, the 50% lethal dose (LD50) in [14] was 20.2 mg/kg. Moreover, the figures for the selectivity ratio in series [15] and in series [16] were 5.4 and 5.1, respectively.
The inhibition is the percentage by which the read-out fell short of the control. With `CCOC(=O)Cc1ccc(OCC(=O)N2CCOCC2)c(OCC)c1`, the Time stood at 24.6 s in the series with Oryctolagus cuniculus [1]; 197.2 s with Oryctolagus cuniculus [2]; 8.7 s in the series on Rattus norvegicus [3]; 65.8 s in the series on Rattus norvegicus [4]; 25.8 s with Rattus norvegicus [6]; 69.3 s in the series with Mus musculus [7]. The Time was found to be 96.6 s in the series on Oryctolagus cuniculus [10]; 39.8 s with Mus musculus [11]; 78.9 s with Rattus norvegicus [20]; 112.9 s with Mus musculus [12]; 7.6 s with Mus musculus [13]. For the same molecule, the 50% effective dose (ED50) in the series with Rattus norvegicus [17] was found to be 10.5 mg/kg; in the series with Mus musculus [8], 35.5 mg/kg; in the series on Oryctolagus cuniculus [9], 7.6 mg/kg. The logP in series [5] turned out to be 1.1. In series [18], this molecule displayed an inhibition of 62.8%. The median lethal dose (LD50) came to 227 mg/kg in [19], 131 mg/kg in series [14] and 89.3 mg/kg in series [22]. For the same molecule, the selectivity ratio in series [15] stood at 17.3; in series [21], 8.5; in series [16], 6.4.
On to `CCCOC(=O)Cc1ccc(OCC(=O)N(CC)CC)c(OC)c1` [PROPANIDID], for which the Time in the series on Oryctolagus cuniculus [1] turned out to be 22.6 s; in the series on Oryctolagus cuniculus [2], 265.4 s; in the series with Rattus norvegicus [3], 16.3 s; with Rattus norvegicus [4], 79.9 s; in the series on Rattus norvegicus [6] it was 58.7 s; in the series with Mus musculus [7] it was 83.9 s. The Time is 124.5 s with Oryctolagus cuniculus [10], 56.3 s in the series on Mus musculus [11], 89.6 s in the series on Mus musculus [12] and 6.7 s in the series on Mus musculus [13]. The ED50 turned out to be 20.9 mg/kg in the series with Mus musculus [8] and 5.1 mg/kg with Oryctolagus cuniculus [9].
Consider `CCCOC(=O)Cc1ccc(OCC(=O)N2CCOCC2)c(OCC)c1`, for which the Time with Oryctolagus cuniculus [1] stood at 21.3 s; with Oryctolagus cuniculus [2] it was 211.4 s; in the series on Rattus norvegicus [3], 9.2 s; in the series with Rattus norvegicus [4], 69.6 s; in the series on Rattus norvegicus [6], 37.9 s; in the series on Mus musculus [7], 89.6 s. Besides, the Time with Oryctolagus cuniculus [10] worked out at 79.6 s; in the series with Mus musculus [11], 46.8 s; with Rattus norvegicus [20] it was 81.2 s; with Mus musculus [12], 104.8 s; in the series on Mus musculus [13], 6.7 s. For the same molecule, the median effective dose (ED50) in the series on Rattus norvegicus [17] stood at 12.2 mg/kg; in the series on Mus musculus [8], 32.2 mg/kg; in the series with Oryctolagus cuniculus [9], 6.5 mg/kg. The logP in series [5] was 1.4. Besides, the inhibition in series [18] came out at 64.3%. Moreover, the values for the 50% lethal dose (LD50) in series [19], in series [14] and in [22] were 200 mg/kg, 108 mg/kg and 123 mg/kg, respectively. Besides, the selectivity ratio amounted to 16.6 in [15], 10.1 in series [21] and 6.2 in series [16].
For `CCOc1cc(CC(=O)OC(C)C)ccc1OCC(=O)N1CCOCC1`, the Time came to 19.9 s in the series on Oryctolagus cuniculus [1]; 188.6 s in the series with Oryctolagus cuniculus [2]; 11.1 s in the series with Rattus norvegicus [3]; 61.7 s in the series on Rattus norvegicus [4]; 32.6 s with Rattus norvegicus [6]; 96.8 s in the series on Mus musculus [7]. The Time was 81.4 s in the series with Oryctolagus cuniculus [10]; 54.9 s in the series with Mus musculus [11]; 84.6 s in the series on Rattus norvegicus [20]; 116.8 s in the series with Mus musculus [12]; 7.5 s in the series on Mus musculus [13]. For the same molecule, the figures for the 50% effective dose (ED50) with Rattus norvegicus [17], in the series with Mus musculus [8] and in the series on Oryctolagus cuniculus [9] were 11.4 mg/kg, 30.8 mg/kg and 7.4 mg/kg, respectively. In addition, the log partition coefficient (logP) in series [5] turned out to be 1.2. This molecule showed an inhibition in series [18] of 76.8%. Besides, the median lethal dose (LD50) was found to be 200 mg/kg in [19], 112 mg/kg in [14] and 128 mg/kg in [22]. The values for the selectivity ratio in series [15], in [21] and in series [16] were 15.2, 11.2 and 6.5, respectively.
With `COc1cc(CC(=O)OC(C)C)ccc1OCC(=O)N1CCOCC1`, the lipophilicity (logP) in series [5] is 1.3. Also, the 50% effective dose (ED50) in the series on Mus musculus [8] came to 46.8 mg/kg. In series [18], this molecule returned an inhibition of 35.7%. Besides, in [19], the LD50 was 276 mg/kg. Besides, in [16], the selectivity ratio was found to be 5.9.
On the same counts, the results for `CCOc1cc(CC(=O)OC(C)C)ccc1OCC(=O)N1CCN(C(=O)OC(C)(C)C)CC1` are 2.1, 36.8 mg/kg, 29.3%, 258 mg/kg and 7.

For the origin of these results see ChEMBL document CHEMBL5241136, “Design, synthesis and evaluation of heterocyclic 2-phenylacetate derivatives as water-soluble rapid recovery hypnotics” (Bioorg Med Chem Lett, 2023).
